Measurements from US7176313B2, “Anti acid-fast bacterial agent containing pyridonecarboxylic acids as active ingredient” (Daiichi Pharmaceutical Co., Ltd., priority 2000, dated 2007).
Converted amounts (≈) assume the structure as drawn.

System: RFP-resistant M. tuberculosis
Assay: microbe, parasite or virus in culture
Type: cell-based, Mycobacterium tuberculosis
[1] = RFP-resistant M. tuberculosis No. 44, Table 7
[2] = RFP-resistant M. tuberculosis No. 50, Table 7
[3] = Mycobacterium tuberculosis, RFP-resistant M. tuberculosis No. 44, Table 7
[4] = Mycobacterium tuberculosis, RFP-resistant M. tuberculosis No. 45, Table 7
[5] = Mycobacterium tuberculosis, RFP-resistant M. tuberculosis No. 47, Table 7
[6] = Mycobacterium tuberculosis, RFP-resistant M. tuberculosis No. 50, Table 7
[7] = Mycobacterium tuberculosis, RFP-resistant M. tuberculosis No. 56, Table 7
[8] = Mycobacterium tuberculosis, RFP-resistant M. tuberculosis No. 71, Table 7
[9] = Mycobacterium tuberculosis, RFP-resistant M. tuberculosis No. 97, Table 7
[10] = Mycobacterium tuberculosis, RFP-resistant M. tuberculosis No. 44, Table 8 (series 2)
[11] = Mycobacterium tuberculosis, RFP-resistant M. tuberculosis No. 45, Table 8 (series 2)
[12] = Mycobacterium tuberculosis, RFP-resistant M. tuberculosis No. 50, Table 8 (series 2)
[13] = Mycobacterium tuberculosis, RFP-resistant M. tuberculosis No. 51, Table 8 (series 2)
[14] = Mycobacterium tuberculosis, RFP-resistant M. tuberculosis No. 56, Table 8 (series 2)
[15] = Mycobacterium tuberculosis, RFP-resistant M. tuberculosis No. 71, Table 8 (series 2)
[16] = Mycobacterium tuberculosis, RFP-resistant M. tuberculosis No. 97, Table 8 (series 2)
[17] = RFP-resistant M. tuberculosis No. 44, Table 8 (series 2)
[18] = RFP-resistant M. tuberculosis No. 45, Table 8 (series 2)
[19] = RFP-resistant M. tuberculosis No. 50, Table 8 (series 2)
[20] = RFP-resistant M. tuberculosis No. 51, Table 8 (series 2)
[21] = RFP-resistant M. tuberculosis No. 56, Table 8 (series 2)
[22] = RFP-resistant M. tuberculosis No. 71, Table 8 (series 2)
[23] = RFP-resistant M. tuberculosis No. 97, Table 8 (series 2)

SMILES | MIC [10] | MIC [11] | MIC [12] | MIC [13] | MIC [14] | MIC [15] | MIC [16] | further results
C[C@H]1COc2c(N3CC(N)C4(CC4)C3)c(F)cc3c(=O)c(C(=O)O)cn1c23 (stereo partly drawn) [Compd. 14] | – | – | – | – | – | – | – | MIC [1]: 0.78 µg/mL (≈ 2.09 µM); MIC [2]: 0.39 µg/mL (≈ 1.04 µM)
COc1c(N2CCN(C)CC2)c(F)cc2c(=O)c(C(=O)O)cn([C@@H]3C[C@@H]3F)c12 [Compd. 15, 6-Fluoro-1-[2-(S)-fluoro-1-(R)-cyclopropyl]-1,4-dihydro-8-methoxy-7-(4-methylpiperazin-1-yl)-4-oxoquinoline-3-carboxylic acid] | – | – | – | – | – | – | – | MIC [3]: 0.2 µg/mL (≈ 0.508 µM); MIC [4]: 1.56 µg/mL (≈ 3.97 µM); MIC [5]: 0.39 µg/mL (≈ 0.991 µM); MIC [6]: 0.2 µg/mL (≈ 0.508 µM); MIC [7]: 6.25 µg/mL (≈ 15.9 µM); MIC [8]: 0.39 µg/mL (≈ 0.991 µM); MIC [9]: 1.56 µg/mL (≈ 3.97 µM)
COc1c(N2C[C@@H](C)N[C@@H](C)C2)c(F)cc2c(=O)c(C(=O)O)cn([C@@H]3C[C@@H]3F)c12 [Compd. 16, 7-(3,5-cis-Dimethylpiperazin-1-yl)-6-fluoro-1-[2-(S)-fluoro-1-(R)-cyclopropyl]-1,4-dihydro-8-methoxy-4-oxoquinoline-3-carboxylic acid] | 0.25 µg/mL (≈ 0.614 µM) | 4 µg/mL (≈ 9.82 µM) | 0.12 µg/mL (≈ 0.295 µM) | 0.5 µg/mL (≈ 1.23 µM) | 64 µg/mL (≈ 157 µM) | 0.5 µg/mL (≈ 1.23 µM) | 1 µg/mL (≈ 2.45 µM) | MIC (Mycobacterium tuberculosis, RFP-resistant M. tuberculosis No. 47, Table 8 (series 2)): 0.5 µg/mL (≈ 1.23 µM)
COc1c(N2CCNC(CF)C2)c(F)cc2c(=O)c(C(=O)O)cn([C@@H]3C[C@@H]3F)c12 (stereo partly drawn) [Compd. 19, 6-Fluoro-1-[(1R,2S)-2-fluorocyclopropyl]-7-(3-fluoromethylpiperazin-1-yl)-1,4-dihydro-8-methoxy-4-oxoquinoline-3-carboxylic acid] | 0.39 µg/mL (≈ 0.948 µM) | 3.13 µg/mL (≈ 7.61 µM) | 0.2 µg/mL (≈ 0.486 µM) | 0.78 µg/mL (≈ 1.9 µM) | 50 µg/mL (≈ 122 µM) | 1.56 µg/mL (≈ 3.79 µM) | 1.56 µg/mL (≈ 3.79 µM) | –
COc1c(N2CCNC(CF)(CF)C2)c(F)cc2c(=O)c(C(=O)O)cn([C@@H]3C[C@@H]3F)c12 [Compd. 20, 6-Fluoro-1-[(1R,2S)-2-fluorocyclopropyl]-7-(3,3′-difluoromethylpiperazin-1-yl)-1,4-dihydro-8-methoxy-4-oxoquinoline-3-carboxylic acid] | 0.39 µg/mL (≈ 0.88 µM) | 6.25 µg/mL (≈ 14.1 µM) | 0.39 µg/mL (≈ 0.88 µM) | 0.78 µg/mL (≈ 1.76 µM) | 50 µg/mL (≈ 113 µM) | 1.56 µg/mL (≈ 3.52 µM) | 1.56 µg/mL (≈ 3.52 µM) | –
COCC1CN(c2c(F)cc3c(=O)c(C(=O)O)cn([C@@H]4C[C@@H]4F)c3c2OC)CCN1 (stereo partly drawn) [Compd. 21, 6-Fluoro-1-[(1R,2S)-2-fluorocyclopropyl]-1,4-dihydro-8-methoxy-7-(3-methoxymethylpiperazin-1-yl)-4-oxoquinoline-3-carboxylic acid] | 0.39 µg/mL (≈ 0.921 µM) | 3.13 µg/mL (≈ 7.39 µM) | 0.39 µg/mL (≈ 0.921 µM) | 0.78 µg/mL (≈ 1.84 µM) | 25 µg/mL (≈ 59 µM) | 1.56 µg/mL (≈ 3.68 µM) | 1.56 µg/mL (≈ 3.68 µM) | –
COc1c(N2CCNC3(CC3)C2)c(F)cc2c(=O)c(C(=O)O)cn([C@@H]3C[C@@H]3F)c12 [Compd. 22, 7-{4,7-Diazaspiro[2.5]octan-7-yl}-6-fluoro-1-[(1R,2S)-2-fluorocyclopropyl]-1,4-dihydro-8-methoxy-4-oxoquinoline-3-carboxylic acid] | 0.78 µg/mL (≈ 1.92 µM) | 25 µg/mL (≈ 61.7 µM) | 0.78 µg/mL (≈ 1.92 µM) | 1.56 µg/mL (≈ 3.85 µM) | 100 µg/mL (≈ 247 µM) | 3.13 µg/mL (≈ 7.72 µM) | 6.25 µg/mL (≈ 15.4 µM) | –
COc1c(C2CNC3(CCC3)CN2)c(F)cc2c(=O)c(C(=O)O)cn([C@@H]3C[C@@H]3F)c12 (stereo partly drawn) [Compd. 23, 7-{5,8-Diazaspiro[3.5]nonan-7-yl}-6-fluoro-1-[(1R,2S)-2-fluorocyclopropyl]-1,4-dihydro-8-methoxy-4-oxoquinoline-3-carboxylic acid] | 1.56 µg/mL (≈ 3.72 µM) | 25 µg/mL (≈ 59.6 µM) | 1.56 µg/mL (≈ 3.72 µM) | 6.25 µg/mL (≈ 14.9 µM) | 100 µg/mL (≈ 238 µM) | 12.5 µg/mL (≈ 29.8 µM) | 12.5 µg/mL (≈ 29.8 µM) | –
COc1c(N2CCNC(C3CC3)C2)c(F)cc2c(=O)c(C(=O)O)cn([C@@H]3C[C@@H]3F)c12 (stereo partly drawn) [Compd. 24, 7-(3-Cyclopropylpiperazin-1-yl)-6-fluoro-1-[(1R,2S)-2-fluorocyclopropyl]-1,4-dihydro-8-methoxy-4-oxoquinoline-3-carboxylic acid] | 0.78 µg/mL (≈ 1.86 µM) | 12.5 µg/mL (≈ 29.8 µM) | 0.39 µg/mL (≈ 0.93 µM) | 1.56 µg/mL (≈ 3.72 µM) | 50 µg/mL (≈ 119 µM) | 3.13 µg/mL (≈ 7.46 µM) | 3.13 µg/mL (≈ 7.46 µM) | –
COc1c(N2CCN[C@@H](c3ccccc3)C2)c(F)cc2c(=O)c(C(=O)O)cn([C@@H]3C[C@@H]3F)c12.Cl [Compd. 26] | – | – | – | – | – | – | – | MIC [17]: 0.1 µg/mL; MIC [18]: 1.56 µg/mL; MIC [19]: 0.1 µg/mL; MIC [20]: 0.2 µg/mL; MIC [21]: 12.5 µg/mL; MIC [22]: 0.78 µg/mL; MIC [23]: 0.78 µg/mL
C[C@H]1COc2c(N3CCN[C@@H](c4ccccc4)C3)c(F)cc3c(=O)c(C(=O)O)cn1c23 [Compd. 27, 9-Fluoro-2,3-dihydro-3-(S)-methyl-7-oxo-10-[3-(S)-phenyl-1-piperazinyl]-7H-pyrido[1.2.3-de][1,4]benzoxazine-6-carboxylic acid] | – | – | – | – | – | – | – | MIC [17]: 0.1 µg/mL (≈ 0.236 µM); MIC [18]: 1.56 µg/mL (≈ 3.68 µM); MIC [19]: 0.1 µg/mL (≈ 0.236 µM); MIC [20]: 0.2 µg/mL (≈ 0.472 µM); MIC [21]: 6.25 µg/mL (≈ 14.8 µM); MIC [22]: 0.39 µg/mL (≈ 0.921 µM); MIC [23]: 0.78 µg/mL (≈ 1.84 µM)
COc1c(N2CCN3CCC2C3)c(F)cc2c(=O)c(C(=O)O)cn([C@@H]3C[C@@H]3F)c12 (stereo partly drawn) [Compd. 28, 7-{1,4-Diazabicyclo[3.2.1]octan-4-yl}-6-fluoro-1-[(1R,2S)-2-fluorocyclopropyl]-1,4-dihydro-8-methoxy-4-oxoquinoline-3-carboxylic acid] | 0.2 µg/mL (≈ 0.493 µM) | 3.13 µg/mL (≈ 7.72 µM) | 0.2 µg/mL (≈ 0.493 µM) | 0.78 µg/mL (≈ 1.92 µM) | 12.5 µg/mL (≈ 30.8 µM) | 1.56 µg/mL (≈ 3.85 µM) | 1.56 µg/mL (≈ 3.85 µM) | –
CC1COc2c(N3CCN(C)CC3)c(F)cc3c(=O)c(C(=O)O)cn1c23 (stereo not drawn) [OFLX, OFLOXAIN, reference compound] | – | – | – | – | – | – | – | MIC [1]: 1.56 µg/mL (≈ 4.32 µM); MIC [17]: 2.0 µg/mL (≈ 5.53 µM); MIC (RFP-resistant M. tuberculosis No. 45, Table 7): 25 µg/mL (≈ 69.2 µM); MIC [18]: 3.20 µg/mL (≈ 8.86 µM); MIC (RFP-resistant M. tuberculosis No. 47, Table 8 (series 2)): 8.0 µg/mL (≈ 22.1 µM); MIC [2]: 0.78 µg/mL (≈ 2.16 µM); MIC [19]: 1.0 µg/mL (≈ 2.77 µM); MIC [20]: 4.0 µg/mL (≈ 11.1 µM); MIC [21]: 16 µg/mL (≈ 44.3 µM); MIC [22]: 4.0 µg/mL (≈ 11.1 µM); MIC [23]: 16 µg/mL (≈ 44.3 µM)
CO[C@H]1/C=C/O[C@@]2(C)Oc3c(C)c(O)c4c(O)c(c(/C=N/N5CCN(C)CC5)c(O)c4c3C2=O)NC(=O)/C(C)=C\C=C\[C@H](C)[C@H](O)[C@@H](C)[C@@H](O)[C@@H](C)[C@H](OC(C)=O)[C@@H]1C [RFP, rifampicin, reference compound] | – | – | – | – | – | – | – | MIC [3]: > 100 µg/mL; MIC [4]: > 100 µg/mL; MIC [5]: > 100 µg/mL; MIC [6]: > 100 µg/mL; MIC (Mycobacterium tuberculosis, RFP-resistant M. tuberculosis No. 51, Table 7): > 100 µg/mL; MIC [7]: > 100 µg/mL; MIC [8]: > 100 µg/mL; MIC [9]: > 100 µg/mL
